In patent publication US9555038B2, “Heterocycle-substituted tetracyclic compounds and methods of use thereof for the treatment of viral diseases” (Merck Sharp & Dohme Corp., priority 2013, dated 2017) one finds IC50 data, which are given here for eight compounds.

Where two headings read alike, the source gives them in different places.

Experiment [1] has as its system HCV replicon 1A. Nature of the experiment: Cell-based HCV Replicon Assay A, replicon 1A. The method in brief:
(§1)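 2000 cells/well; 10 serial dilutions, top concentration 333.3 nM to 1.667 nM; 0.5% DMSO, 5% FBS; 3 days; lysis; multiplex TaqMan RT-PCR (NS5B/Neo plus cyclophilin), RNA from linear Ct standard curves.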

Experiment [2] relates to HCV replicon 1AY93H. Nature of the experiment: Cell-based HCV Replicon Assay A, replicon 1AY93H. Put shortly: as §1
The test system of experiment [3] is HCV replicon 2B. Put plainly: Cell-based HCV Replicon Assay A, replicon 2B. The method in brief: as §1
Experiment [4] deals with HCV replicon 1B. Nature of the experiment: Cell-based HCV Replicon Assay B, replicon 1B. Here is the method:
In an alternate assay (“Replicon Assay B”), 1000 cells were seeded per well in a 384-well collagen coated black plate from Greiner bio-one (Cat #781946) in 5% FBS. Inhibitors of this invention were added at 24 h post-seeding, and the plates were incubated for 3 days. Cells were subsequently lysed with Qiagen lysis buffer (Cat #1062731) to extract the RNA. HCV replicon RNA level was measured by real-time PCR using the RNA-to-CT kit from Applied Biosystem (Cat #4392656) and genotype-specific primers and probes. The amplicon was located within NS5B. The sequence of the PCR primers are as follows: 5B.2F, ATGGACAGGCGCCCTGA (SEQ. ID NO. 1); 5B.2R, […] (SEQ. ID NO. 2); the probe sequence was FAM-labeled CACGCCATGCGCTGCGG (SEQ. ID NO. 3). To detect genotype 1A the primer 1A F, TGCGGAACCGGTGAGTACA and 1A R, […] were used; the probe sequence was FAM-[…].
The real-time RT-PCR reactions were run on ABI PRISM 7900HT or Viia7 Sequence Detection System using the following program: 48° C. for 30 minutes, 95° C. for 10 minutes, 40 cycles of 95° C. for 15 sec, 60° C. for 1 minutes. The 50% effective concentration (EC50) was the drug concentration necessary to achieve an increase in the cycle threshold (CT) of 1 over the projected baseline CT.
Data was obtained for various compounds of the present invention using the methods described in the Example above, and is presented in the table immediately below. Data for replicons 1A, 1AY93H and 2B were obtained using Replicon Assay A and data for replicons 1AQ30D and 1B were obtained using Replicon Assay B.

Setting [5] is: read-out: 1A Y93H IC50, replicon 1AY93H.

For the compound `COC(=O)NC(C(=O)N1CCC[C@H]1c1ncc(-c2ccc3c(c2)cc2n3C(c3cnc(C4(C)CC4)s3)Oc3cc(-c4cnc([C@@H]5CCCN5C(=O)[C@@H](NC(=O)OC)C(C)C)[nH]4)cc(F)c3-2)[nH]1)C1CCOC(C)(C)C1` (single isomer, unassigned) [Compound 459], the IC50 stood at 0.0023 nM in experiment [1]; 0.296 nM in experiment [2] (setting [5]); 0.083 nM in experiment [3] (read-out: 2B IC50, replicon 2B); 0.003 nM in experiment [4].
With `COC(=O)NC(C(=O)N1CCC[C@H]1c1ncc(-c2ccc3c(c2)cc2n3C(c3cnc(C4(C)CC4)s3)Oc3cc(-c4cnc([C@@H]5CCCN5C(=O)[C@@H](NC(=O)OC)C(C)C)[nH]4)cc(F)c3-2)[nH]1)C1CCOC(C)(C)C1` (single isomer, unassigned) [Compound 460], the IC50 worked out at 0.0027 nM in experiment [1]; 0.288 nM in experiment [2] (setting [5]); 0.138 nM in experiment [3] (read-out: 2B IC50, replicon 2B); 0.0039 nM in experiment [4].
`COC(=O)NC(C(=O)N1CCC[C@H]1c1ncc(-c2ccc3c(c2)cc2n3C(c3cnc(C4(C)CC4)s3)Oc3cc(-c4cnc([C@@H]5CCCN5C(=O)[C@@H](NC(=O)OC)C(C)C)[nH]4)cc(F)c3-2)[nH]1)C1C[C@@H](C)O[C@@H](C)C1` (single isomer, unassigned) [Compound 461]: the IC50 in experiment [1] (Hepatitis C virus) was 0.0022 nM; in experiment [2] (setting [5]), 0.32 nM; in experiment [3] (read-out: 2B IC50, replicon 2B) it was 0.132 nM; in experiment [4] (Hepatitis C virus), 0.0038 nM.
For the compound `COC(=O)NC(C(=O)N1CCC[C@H]1c1ncc(-c2ccc3c(c2)cc2n3C(c3cnc(C4(C)CCCC4)s3)Oc3cc(-c4cnc([C@@H]5CCCN5C(=O)[C@@H](NC(=O)OC)C(C)C)[nH]4)cc(F)c3-2)[nH]1)C1C[C@@H](C)O[C@@H](C)C1` (single isomer, unassigned) [Compound 470], the IC50 in experiment [1] was 0.0026 nM; in experiment [2] (setting [5]), 0.514 nM; in experiment [3] (read-out: 2B IC50, replicon 2B), 0.106 nM; in experiment [4], 0.0035 nM.
As to `COC(=O)NC(C(=O)N1[C@@H]2C[C@@H]2C[C@H]1c1ncc(-c2ccc3c(c2)cc2n3C(c3cnc(C4(C)CCCC4)s3)Oc3cc(-c4cnc([C@@H]5CCCN5C(=O)[C@@H](NC(=O)OC)C(C)C)[nH]4)cc(F)c3-2)[nH]1)C1C[C@@H](C)O[C@@H](C)C1` (single isomer, unassigned) [Compound 474], the IC50 stood at 0.0015 nM in experiment [1]; 0.269 nM in experiment [2] (setting [5]); 0.263 nM in experiment [3] (read-out: 2B IC50, replicon 2B); 0.0036 nM in experiment [4].
`COC(=O)NC(C(=O)N1[C@@H]2C[C@@H]2C[C@H]1c1ncc(-c2ccc3c(c2)cc2n3C(c3cnc(C4(C)CCCC4)s3)Oc3cc(-c4cnc([C@@H]5CCCN5C(=O)[C@@H](NC(=O)OC)C(C)C)[nH]4)cc(F)c3-2)[nH]1)C1CCOC(C)(C)C1` (single isomer, unassigned) [Compound 476]: the IC50 was 0.0011 nM in experiment [1]; 0.316 nM in experiment [2] (setting [5]); 0.19 nM in experiment [3] (read-out: 2B IC50, replicon 2B); 0.0035 nM in experiment [4].
In the case of `COC(=O)N[C@H](C(=O)N1CCC[C@H]1c1ncc(-c2cc(F)c3c(c2)OC(c2cnc(C4CC4)s2)n2c-3c(C)c3cc(-c4cnc([C@@H]5CCCN5C(=O)[C@@H](NC(=O)OC)C(C)C)[nH]4)ccc32)[nH]1)C(C)C` (single isomer, unassigned) [Compound 495], the IC50 in experiment [1] was 0.0016 nM; in experiment [2] (replicon 1AY93H, read-out: 1A Y93H IC50), 0.27 nM; in experiment [3] (replicon 2B, read-out: 2B IC50) it was 0.184 nM; in experiment [4], 0.0025 nM.
Take `COC(=O)N[C@H](C(=O)N1CCC[C@H]1c1ncc(-c2cc(F)c3c(c2)OC(c2nc4c(s2)CCC4)n2c-3cc3cc(-c4cnc([C@@H]5CCCN5C(=O)[C@@H](NC(=O)OC)C(C)C)[nH]4)ccc32)[nH]1)C(C)C` (single isomer, unassigned) [Compound 504]: the 50% inhibitory concentration (IC50) is 0.0026 nM in experiment [1] (Hepatitis C virus); 1.67 nM in experiment [2] (setting [5]); 1.67 nM in experiment [3] (read-out: 2B IC50, replicon 2B); 0.0024 nM in experiment [4] (Hepatitis C virus).
